# Experimental data as given in patent US10213527B2, “Functionalized titanium binding peptides and implants coated with same” (Ben-Gurion University of the Negev Research and Development …, priority 2012, dated 2019).
# Entries after “also recorded” stand apart in the source; their conditions may differ. Non-standard residues stand in square brackets, D forms with d. Residues, ends and D or L forms follow the SMILES beside them. No end group written: not given here. pS = N[C@@H](COP(=O)(O)O)C(=O)O
# What was measured:
# [1] = Chromatography of PpSer on TiO2 anatase column (bicarbonate and NaOH elution gradients); type: binding
# Excerpt: Chromatography on TiO2 Surfaces: as described in Golan Gertler, Gideon Fleminger and Hanna Rapaport. Langmuir 2010, 26(9), 6457-6463, and further illustrated in FIG. 3. Stainless steel (4.6_50 mm) column was packed with TiO2 anatase (Sachtopore NP 10μ/100 A°, particle size/pore size respectively) suspended in methanol. The packed columns were washed consecutively with water and 0.1 M NaOH to desorb surface contaminants. The columns were then pre-equilibrated with the running buffer. Lyophilized peptides were dissolved in the running buffer (0.2 mg/mL) and centrifuged at 5000 g for 5 min prior to injection into the column to remove possible aggregates. The supernatants (100 μL) were injected on to the TiO2 column at a flow rate of 0.02 mL/min to attain 40 min retention time for adsorption. After 65 minutes, the flow rate was increased to 0.5 mL/min. Ten millimolar Tris and phosphate buffer solutions, pH 7.4, were used as adsorption (running) media. In addition, these buffers complemented by 150 mM NaCl (TBS, PBS, respectively) were also examined. Elution was carried out by gradients of the following solutions applied consecutively to the column: 1 M NaCl, 80% acetonitrile, 200 mM sodium phosphate, and 0.1 M NaOH, monitored at 215-280 nm. The chromatograms were obtained at room temperature using 0.2 μm filtered (Millipore, Badford, Mass.) solutions.
# The peptide dissolved in two different running buffer, Tris buffer saline (TBS) and sodium bicarbonate saline (BCS). The affinity of functional groups to TiO2 from previous works was known to be PO4^−3>HCO3^−>COO^−. (The diagonal line in the chromatography is the elution gradient: 0-200 mM sodium bicarbonate & 0-0.1M NaOH).
# Peptides that bind to TiO2 only through Glutamic acid functional groups will elute in BC gradient, however peptides that bind to TiO2 through pSer functional groups will elute in the NaOH gradient.
# The idea behind using BCS as running buffer is to block the surface with carbonate ions before the peptide injection.
# [2] = Adsorption of sodium phenyl phosphate dibasic to TiO2 microparticles (solution depletion); type: binding; design: Difference in concentration of the solution between the initial and the final one: unit: mg/ml; conditions: TiO2 microparticles 1.8 mg/ml, TBS
# Procedure: Several solutions of sodium phenyl phosphate dibasic with different concentrations, dissolved in the same TBS, were allowed to adsorb to TiO2 microparticles (1.8 mg/ml in 1 ml). Table 6, herein below lists the initial concentrations and the difference in concentration of the solution between the initial and the one following adsorption. According to Table 6, the phenyl phosphate adsorbs only at concentrations lower than 0.25 mg/ml probably because at higher concentrations the compound undergoes some aggregation and stays only in the solution. This adsorption behavior is unusual and therefore no binding affinity constants were determined.
# [3] = Calcium-phosphate adsorption on peptide coated TiO2 surfaces (XPS); conditions: Ca—P solution 24 h at 37° C.; FIG. 17B
# Procedure: Surfaces were incubated in TBS solution for 45 min in room temperature, and then the surfaces were incubated in 0.4 mg ml^−1 peptide-TBS 10 mM solution for 1 hr at room temperature and were dried with nitrogen. Peptide coating were analyzed by XPS.
# The ability to absorb calcium-phosphate (Ca—P) ions by the different peptide coatings were measured using Ca—P solution. The solution was prepared at physiological pH and contained K2HPO4 (1.0 mM), CaCl2.2H2O (2.5 mM), dissolved consecutively in deionized water at 37° C. and buffered at pH ˜7.4 using 50 mM Trizma™ base and an appropriate volume of 1M HCl. Coated surfaces were incubated in Ca—P solution at 37° C. for 24 h.
# However it contradicts the β-cpSer adsorption isotherm result. This phenomenon can be explained by the different surface topography and surface area between TiO2 particles and TiO2 surface, adsorption surface area at adsorption isotherm experiment is 1.123 m^2 and the surface area is 10^−4 m^2. At small surface areas, the difference between peptides' adsorption cannot be observed. In order to examine the influence of the Glu tail on calcified mineralization process, titanium oxide surfaces were coated with pSer peptide or with the control peptides (cpSer or β-cpSer) and incubated for 24 hours inside calcium-phosphate solution (see Materials and Methods). Atomic concentrations of calcium and phosphorus were compared with titanium as measured by XPS.
# [4] = Adsorption isotherm onto TiO2 particles, Sips equation fitting; type: binding; conditions: 10 mM TBS pH 7.4, 1 h room temperature; Sips fit
# Procedure: The adsorption of all three peptides to TiO2 particles were measured with peptides solution in a range of concentrations from 0.002 to 0.524 mM in 10 mM TBS solution. TiO2 particles were suspended in TBS 10 mM, pH 7.4, to a final concentration of 1.8 mg/ml. To each test tube containing 0.5 ml of peptide at different concentrations, 0.5 ml of TiO2 particles solution was added. The samples were continuously mixed with a tube rotator for 1 h at room temperature. To precipitate the TiO2 particles, the test tubes were centrifuged at 5000 rpm for 3 minutes and the absorption of the supernatant was measured at 280 nm using a microplate-reader (BioTek instruments). Peptide concentration was determined based on calibration curve of each peptide prepared in TBS solution. In order to describe the adsorption of molecules on TiO2 particles surface the sips equation, also known as the Langmuir-Freundlich equation (1), was used:
# [formula] where S is the amount of adsorbed molecules (mol m^−2), Smax is the maximum amount of molecules adsorbed (mol m^−2), C is their concentration is solution at equilibrium (mM), k is the association coefficient (M^−1) and α is the constant representing this distribution.^30
# Peptide adsorption and desorption conditions were characterized by HPLC. A column was packed with micrometer size particles of the TiO2 anatase phase (see Materials and Methods). […]
# [5] = HPLC chromatography on TiO2 anatase microparticle column (Example 2); type: binding; conditions: 0.4 mg/ml in TBS (10 mM, pH=7.4) loading buffer
# Procedure: A stainless steel (4.6×50 mm) column was packed with TiO2 anatase (Sachtopore NP 10μ/100 Å, particle size/pore size respectively) suspended in methanol. The packed column was washed consecutively with water and 0.1 M NaOH to desorb surface contaminants. The column was then pre-equilibrated with the loading/running buffer. The chromatographic process was performed on a HPLC system (Algient Technologies, 1260 Infinity, Germany). Peptides dissolved in the loading/running buffer (0.4 mg/ml) were sonicated for 10 minutes and centrifuged at […] for 8 minutes and were injected to the TiO2 column at a flow rate of 0.02 ml/min to attain ˜40 minutes retention time for adsorption. 10 mM tris buffered saline pH 7.4 (TBS) was used as adsorption/running media. After 65 minutes, the flow rate was increased to 0.5 ml/min. Elution was carried out by gradients of 200 mM sodium bicarbonate solution pH 7.4 and 0.1 M NaOH. Elution was monitored at 280 nm. All solutions were filtered using 0.2 μm filters (Millipore, Badford, Mass.).
# Peptide adsorption and desorption conditions were characterized by HPLC. A column was packed with micrometer size particles of the TiO2 anatase phase (see Materials and Methods). Tris buffer saline (TBS), pH 7.4, served as a loading buffer. […]
# [6] = BCS (sodium bicarbonate saline) running buffer, FIG. 7B
compound,measurement,setting,value
"O=C(O)CC[C@H](NC(=O)[C@H](CCC(=O)O)NC(=O)[C@H](CCC(=O)O)NC(=O)[C@H](CCC(=O)O)NC(=O)[C@H](CCC(=O)O)NC(=O)CNC(=O)CNC(=O)CNC(=O)[C@H](Cc1c[nH]c2ccccc12)NC(=O)[C@H](COP(=O)(O)O)NC(=O)[C@H](Cc1c[nH]c2ccccc12)NC(=O)[C@H](COP(=O)(O)O)NC(=O)[C@@H]1CCCN1)C(=O)O [PpSer, Pro-pSer-Trp-pSer-Trp-(Gly)3-(Glu)5] (H-P[pS]W[pS]WGGGEEEEE-OH; N-terminus and C-terminus assumed)",fraction of the peptide able to displace the carbonate ions and bind TiO2 through pSer,[1]; [6],⅔ and two-thirds
same,"fraction of the peptide that can't displace the carbonate ions, bonded to them, eluted at BC gradient",[1]; [6],⅓ and about one third
same,mode of binding to TiO2 on the column,"[1]; TBS running buffer, 10 mM pH 7.4, FIG. 7A",bonded to TiO2 through pSer functional groups
O=P([O-])([O-])Oc1ccccc1.[Na+].[Na+] [sodium phenyl phosphate dibasic],Difference in concentration of the solution between the initial and the final one,[2]; 0.0625 mg/ml in adsorbing solution,0.02365
same,Difference in concentration of the solution between the initial and the final one,[2]; 0.125 mg/ml in adsorbing solution,0.02083
same,Difference in concentration of the solution between the initial and the final one,[2]; 0.25 mg/ml in adsorbing solution,0.008776
same,Difference in concentration of the solution between the initial and the final one,[2]; 0.5 mg/ml in adsorbing solution,~0
same,Difference in concentration of the solution between the initial and the final one,[2]; 1 mg/ml in adsorbing solution,~0
same,concentrations at which the compound adsorbs to TiO2 microparticles,[2],lower than 0.25 mg/ml
Pro-Ser(phos)-Phe-Ser(phos)-Trp-(Gly)3-(Glu)5 (P[pS]F[pS]WGGGEEEEE) [pSer],calcium and phosphate adsorbed by coated surfaces (atomic ratio of P and Ca to Ti),[3],significantly higher calcium and phosphate concentration; also recorded: adsorbs more Ca and P ions
Pro-Ser(phos)-Ser(phos)-Phe-Trp-(Gly)3 (P[pS][pS]FWGGG) [β-cpSer],"Smax, maximum amount of molecules adsorbed to TiO2 surface",[4],7.48E−7 mol · m^−2
same,calcium and phosphate adsorbed by coated surfaces (atomic ratio of P and Ca to Ti),[3],approximately the same calcium and phosphate concentrations
"Pro-pSer-Phe-pSer-Trp-(Gly)3 (P[pS]F[pS]WGGG) [cpSer, control peptide lacking the stretch of the Glu residues]",calcium and phosphate adsorbed by coated surfaces (atomic ratio of P and Ca to Ti),[3],approximately the same calcium and phosphate concentrations
Trp-Glu,adsorption to the oxide,[5],does not adsorb
